Data published in patent US20070167495A1, “Pleuromutilin derivatives, process for their preparation and uses thereof” (GLAXO[…] UNLIMITED, priority 2003, published 2007).

Assays:
[1] = tested on: Streptococcus pneumoniae 1629; experiment: Antibacterial activity, MIC against Streptococcus pneumoniae 1629; type: cell-based
[2] = literature background (Egger and Reinshagen, J. Antibiotics 1976); cited from earlier work
[3] = tested on: Staphylococccus aureus Oxford; experiment: Antibacterial activity, MIC against Staphylococccus aureus Oxford; type: cell-based, Staphylococcus aureus

| Molecule | MIC [1] | antibacterial activity [2] | MIC [3] |
| --- | --- | --- | --- |
| C=C[C@]1(C)C[C@@H](OC(=O)CSc2ccccc2C(=O)O)[C@]2(C)[C@H](C)CC[C@]3(CCC(=O)[C@H]32)[C@@H](C)[C@@H]1O [(2-carboxylato-phenylsulfanyl)-acetic acid mutilin 14-ester] | 8 micrograms per millillitre | inferior in activity even to the parent substance pleuromutilin | 0.5 micrograms per millillitre |
| C=C[C@]1(C)C[C@@H](O)[C@]2(C)[C@H](C)CC[C@]3(CCC(=O)[C@H]32)[C@@H](C)[C@@H]1O [Mutilin] |  | inactive |  |
| C=C[C@]1(C)C[C@@H](OC(=O)CO)[C@]2(C)[C@H](C)CC[C@]3(CCC(=O)[C@H]32)[C@@H](C)[C@@H]1O [Pleuromutilin] |  | modest antibacterial activity |  |
| (4-Carboxylato-phenylsulfanyl)-acetic acid mutilin 14-ester [Example 1] | 0.5 micrograms per millillitre |  | 0.125 micrograms per millillitre |
